# Measurements: article doi:10.1101/2024.02.03.578754v1 (biorxiv, 2024)
# Target: T1, OASS (O-acetylserine sulfhydrylase) (Arabidopsis thaliana, UniProt P47998)
# Assay: fluorescence polarization competition
# Type: binding
# Conditions: not given
# T1 sequence (P47998 whole entry): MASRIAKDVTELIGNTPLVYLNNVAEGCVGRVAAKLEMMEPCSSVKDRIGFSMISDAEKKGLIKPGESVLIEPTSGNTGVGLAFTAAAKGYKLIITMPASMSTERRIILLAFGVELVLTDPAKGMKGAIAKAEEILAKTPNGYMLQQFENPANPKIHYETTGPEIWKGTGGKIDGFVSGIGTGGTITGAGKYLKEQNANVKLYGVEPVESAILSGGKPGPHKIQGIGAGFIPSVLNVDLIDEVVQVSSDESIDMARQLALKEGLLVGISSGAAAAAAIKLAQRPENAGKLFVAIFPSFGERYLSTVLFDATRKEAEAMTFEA
row,IC50 [µM],Compound
1,5.4,CC(C)Cc1ccc(-c2csc(NC(=O)c3ccccc3-c3ccccc3C(=O)O)n2)cc1 [PJ14]
2,4.7,O=C(O)c1ccccc1-c1ccccc1C(=O)Nc1nc(-c2ccc(Cl)cc2Cl)cs1 [PJ15]
3,50,COc1ccc(-c2cc(NC(=O)c3ccccc3-c3ccccc3C(=O)O)n(CCO)n2)cc1 [PJ34]

# Target: T1, OASS (O-acetylserine sulfhydrylase)
# Assay: biochemical
# Conditions: not given
row,IC50 [µM],Compound
1,2,NCCc1ccc(-c2csc(NC(=O)c3ccccc3-c3ccccc3C(=O)O)n2)cc1 [PJ13]
2,4.8,CC(C)Cc1ccc(-c2csc(NC(=O)c3ccccc3-c3ccccc3C(=O)O)n2)cc1 [PJ14]
3,10.1,"O=C(Nc1cccc(NC(=O)c2ccccc2-c2ccccc2C(=O)O)c1)c1nccs1 [compound 11, 11]"
4,2.7,Nc1cc(F)ccc1-c1csc(NC(=O)c2ccccc2-c2ccccc2C(=O)O)n1 [compound 17]
5,6.7,"COc1ccc(-c2nc(NC(=O)c3ccccc3-c3ccccc3C(=O)O)sc2C)cc1 [compound 33, 33]"

# Same assay, conditions: read-out: FP IC50; inhibitor
row,IC50 [µM],Compound
1,4.1,O=C(O)c1ccccc1-c1ccccc1C(=O)Nc1cccc(-c2nc3ccccc3[nH]2)c1 [PJ8]
2,12.2,O=C(O)c1ccccc1-c1cccnc1C(=O)Nc1nc(-c2ccc(Cl)cc2Cl)cs1 [compound 18]
